Where two headings read alike, the source gives them in different places. Blank lines part the entries; values can stand above or below the compound they belong to.
What was measured:
[1] = Plasma protein binding by equilibrium dialysis, human plasma; assay type: in vitro ADME, humans; conditions: both sexes, pooled plasma, read-out: fraction unbound in plasma (fu_p)
[2] = Human steady-state plasma exposure (population PK / superposition); assay type: in vivo; conditions: 60 mg NBI-750142 BID
Experimental: (§1) Valbenazine human plasma exposure metrics in patients were estimated with a population pharmacokinetic (PK) analysis and plasma protein binding (PPB) data. […] These steady-state concentrations, in conjunction with free EC50 from NHP PET for blocking compounds was used to estimate %TO in humans. Plasma concentrations of NBI-750142 following 60 mg BID dose were estimated using plasma concentrations following a single oral dose of 60 mg NBI-750142 using the principle of superposition.

VMAT2 [3] = biological target: T1, VMAT2 (Homo sapiens, UniProt Q05940); test: Human [18F]AV-133 PET target occupancy; assay type: in vivo; set-up: from tissue; host or cells: brain of healthy male volunteers (caudate, putamen); conditions: for URF (upregulation factor): upregulation model
Description: The human PET study was approved by the IRB (Approval number: Pro00037529). All participants gave their written informed consent prior to participation in the study. Twelve healthy male subjects were enrolled in cohorts of 2–4 subjects each. Subjects were 29–54 years of age (mean of 43.2 years), and the study had standard inclusion/exclusion criteria, with attention to avoiding drugs which may interfere with the [^18F]AV-133 measurements or with NBI-750142 metabolism.
Subjects fasted during the study and received a small, predefined snack at least 2 h prior to oral dosing of NBI-750142. Consumption of alcohol, caffeine, nicotine or cannabis products, and grapefruit or grapefruit juice was prohibited during the study. One PET scan occurred ~1.5 h following administration of NBI-750142, and a second ~18 h post NBI-750142. These scans are referred to as “T1” and “T2,” respectively, throughout this study (Supplementary Fig. 1). T1 scans were timed to occur at approximately the time to reach maximal plasma concentration, Tmax, and provide the closest comparison to the NHP PET measurements. T2 scans should contribute data points to the lower NBI-750142 concentration portion of the PK-%TO curve and potentially reveal dose-response hysteresis (reviewed in ref. [22]). A total of five cohorts were enrolled in the study in an adaptive design, with two subjects enrolled in each cohort, except for four subjects in cohort 5. NBI-750142 doses in these cohorts ranged from 10 to 200 mg. Blood samples were obtained from each participant immediately before [^18F]AV-133 injection and just before the end of the PET scan in order to quantify plasma concentration of NBI-750142. The Cave derived from these two values was used to compare against %TO.
Prior to the radiotracer injection and PET, a low-dose CT scan was collected for attenuation correction. Subjects were administered a single dose of [^18F]AV-133 intravenously over 3 min using an infusion pump (~3.33 mL per min) through a venous catheter followed by a 10 mL saline flush. Dynamic PET imaging of the brain was acquired over 120 min following radiotracer injection on a Siemens Biograph 6 PET/CT camera with the following frame times: 6 × 30 s, 4 × 1 min, 4 × 2 min, 21 × 5 min (0–120 min). Images were reconstructed with a 168 × 168 × 81 matrix (pixel size of 2.03 mm × 2.03 mm) using an iterative reconstruction algorithm (OSEM 4 iterations, 16 subsets) and a post hoc Gaussian filter FWHM = 3 mm. Standard corrections for random, scatter, system dead time, and attenuation provided by the camera manufacturer were performed. A T1 MRI scan was acquired from eligible subjects as part of the screening visit, to identify and delineate brain anatomical regions of interest for individual PET images. MRI scans were obtained on a Siemens Espree 1.5 Tesla clinical magnet.
Reconstructed PET images were motion and decay corrected, realigned to the subject MRI and subsequently normalized into standard MNI (Montreal Neurological Institute) space using PMOD. Volumes of interest (VOIs) were defined from a template (Hammers, N30R83). Average activity concentration within each VOI was determined and time activity curves (TACs) were generated. TACs were extracted from the following VOIs: caudate and putamen (striatum), and occipital cortex. BPND, the primary outcome measure, was estimated with noninvasive Logan graphical analysis […] 1. The relationship between %TO (averaged between caudate and putamen) and average plasma concentration during the scan was analyzed with an Emax model (Eq. 2) and an upregulation model (Eq. 4), which incorporates an upregulation factor (URF; [24]).4 %TO=Drug−EC50Drug/Drug+EC50(URF−1)/Drug+EC50

[4] = Plasma protein binding by equilibrium dialysis, cynomolgus monkey plasma; assay type: in vitro ADME, cynomolgus monkeys; conditions: both sexes, pooled plasma, read-out: fraction unbound in plasma (fu_p)
VMAT2 [5] = biological target: T1, VMAT2; test: In vitro Ki for affinity to VMAT2, human; assay type: binding
Description: Ki values for compound affinity to VMAT2 were generated from human platelet homogenates as described in [18].

VMAT2 [6] = biological target: T1, VMAT2; test: Estimated human VMAT2 %TO from human PK and NHP PET free EC50; assay type: in vivo; set-up: from tissue; host or cells: brain of healthy male volunteers (caudate, putamen)
Experimental: as §1

VMAT2 [7] = biological target: T2, VMAT2 (Macaca fascicularis, UniProt A0A2K5UVB8); test: NHP [18F]AV-133 PET target occupancy; assay type: in vivo, cynomolgus macaques; conditions: for EC50: Emax model
Experimental: Each NHP PET study enrolled two to three cynomolgus macaques, (3.8–9 year age range).
NHPs fasted overnight before individual PET scans. For the NBI-750142 study, 60 min prior to NBI-750142 or vehicle administration, animals were sedated with an intramuscular injection of 2 mg/kg Aflaxan, 0.02 mg/kg dexmedetomidine, and 0.3 mg/kg midazolam. The animals were intubated with an endotracheal tube for continued delivery of oxygen (1.5–2.5 L) and 1.0–2.5% isoflurane for anesthesia maintenance.
The animals were intubated with an endotracheal tube for continued delivery of isoflurane for anesthesia maintenance.
For all NHP PET scans, blocking compound was administered with a bolus loading dose, followed by constant intravenous infusion over 3 h, with the goal of achieving steady-state plasma exposure. One hour after blocking compound or vehicle administration, [^18F]AV-133 was administered as an intravenous bolus. Dynamic PET data were acquired with a MicroPET Focus-220 camera (Siemens Microsystems, Knoxville, TN) for 120 min post injection and reconstructed into a series of 33 frames and all standard corrections were applied for normalization, randoms, scatter, and attenuation. Brain PET images were analyzed using PMOD software package v3.802 (PMOD Technologies, Zurich, Switzerland). […]
During each scan, 1 mL whole blood PK samples were collected (in K2 EDTA tubes) at multiple time points. Blocking compound concentration in plasma samples were analyzed using validated LC-MS/MS bioanalytical methods. […] The average plasma concentration, Cave, was calculated as the mean compound concentration of samples collected during the PET scan and used for PK-TO analysis.
Time-activity curves were generated for the caudate, putamen, and cerebellum. Non-displaceable binding potential (BPND) was estimated using non-invasive Logan graphical analysis with cerebellum as reference region. %TO of the blocking compound was calculated in the caudate and putamen using baseline and post-dose BPND as follows:1 %TO=1−BPNDpost−block/BPNDbaselinex100 […]
Target sequence in this assay (A0A2K5UVB8 entry or part of it): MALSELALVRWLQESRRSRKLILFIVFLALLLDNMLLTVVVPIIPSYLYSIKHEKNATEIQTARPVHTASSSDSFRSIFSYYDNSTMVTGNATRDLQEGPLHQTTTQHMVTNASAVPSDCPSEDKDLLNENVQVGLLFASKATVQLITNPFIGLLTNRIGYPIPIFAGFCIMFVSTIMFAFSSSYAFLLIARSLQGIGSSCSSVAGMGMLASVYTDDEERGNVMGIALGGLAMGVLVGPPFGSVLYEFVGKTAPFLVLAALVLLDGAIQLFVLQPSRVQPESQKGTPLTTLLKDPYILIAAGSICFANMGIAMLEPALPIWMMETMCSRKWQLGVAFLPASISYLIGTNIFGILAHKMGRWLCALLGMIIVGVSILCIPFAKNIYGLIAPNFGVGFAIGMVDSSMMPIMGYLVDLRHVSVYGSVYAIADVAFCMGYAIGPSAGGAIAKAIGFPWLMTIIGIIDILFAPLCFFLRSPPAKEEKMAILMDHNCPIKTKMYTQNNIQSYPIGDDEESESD

VMAT2 [8] = biological target: T2, VMAT2; test: In vitro Ki for affinity to VMAT2, NHP; assay type: binding
Target sequence in this assay (A0A2K5UVB8 1-517): as the sequence (A0A2K5UVB8 entry or part of it) above

TD patients = system: TD patients; set-up: method as in PMID 28320223; conditions: 6 weeks, cited from earlier work
VMAT2 [9] = conditions: cited from earlier work
[10] = system: chorea associated with Huntington’s Disease; set-up: method as in PMID 37210099; conditions: valbenazine 80 mg; cited from earlier work
VMAT2 [11] = biological target: T3, VMAT2 (Rattus norvegicus, UniProt Q01827); test: Rat NBI-98782 PK-%TO study; assay type: in vivo; conditions: Data on file
T3 construct: from tissue; host or cells: rats dosed in vivo; tissue and read-out method not described

other targets = system: other targets; set-up: method as in PMID 28776237, PMID 28404690, PMID 29680151; conditions: cited from earlier work
VMAT2 [12] = biological target: T2, VMAT2; set-up: method as in PMID 32122751; conditions: bolus administration; radioligand [+]-α-[11C]dHTBZ; cited from earlier work
Target sequence in this assay (A0A2K5UVB8 1-517): as the sequence (A0A2K5UVB8 entry or part of it) above

VMAT2 [13] = biological target: T2, VMAT2; test: [18F]AV-133 baseline PET test-retest; assay type: in vivo, cynomolgus macaques; conditions: 2 NHPs, caudate and putamen, baseline scans ~5 months apart
Experimental: Test-retest variability of BPND in the caudate and putamen were calculated as3 TRTV%=100xBPND1−BPND2/(BPND1+BPND2)/2
Target sequence in this assay (A0A2K5UVB8 entry or part of it): as above

[14] = estimated from single 60 mg oral dose by superposition
[15] = 60 mg NBI-750142 BID, NHP PET free EC50 6.7 ng/mL
[16] = 40 mg VBZ QD, from free NBI-98782 and NHP PET EC50
[17] = 80 mg VBZ QD, from free NBI-98782 and NHP PET EC50

T1 sequence (Q05940 whole entry): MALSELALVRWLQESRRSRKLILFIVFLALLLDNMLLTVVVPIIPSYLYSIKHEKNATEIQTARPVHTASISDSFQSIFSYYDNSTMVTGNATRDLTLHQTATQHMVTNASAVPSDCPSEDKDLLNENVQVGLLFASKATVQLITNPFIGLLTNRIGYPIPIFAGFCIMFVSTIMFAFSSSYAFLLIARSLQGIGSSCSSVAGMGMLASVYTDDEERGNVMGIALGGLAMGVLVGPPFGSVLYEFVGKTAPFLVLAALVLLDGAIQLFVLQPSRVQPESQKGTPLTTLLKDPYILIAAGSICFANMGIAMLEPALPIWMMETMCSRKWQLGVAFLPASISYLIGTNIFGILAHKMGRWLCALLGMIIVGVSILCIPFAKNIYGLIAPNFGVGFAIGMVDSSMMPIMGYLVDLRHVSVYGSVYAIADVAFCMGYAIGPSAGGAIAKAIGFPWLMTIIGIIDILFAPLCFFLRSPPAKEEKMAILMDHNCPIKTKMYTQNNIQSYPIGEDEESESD
T3 sequence (Q01827 whole entry): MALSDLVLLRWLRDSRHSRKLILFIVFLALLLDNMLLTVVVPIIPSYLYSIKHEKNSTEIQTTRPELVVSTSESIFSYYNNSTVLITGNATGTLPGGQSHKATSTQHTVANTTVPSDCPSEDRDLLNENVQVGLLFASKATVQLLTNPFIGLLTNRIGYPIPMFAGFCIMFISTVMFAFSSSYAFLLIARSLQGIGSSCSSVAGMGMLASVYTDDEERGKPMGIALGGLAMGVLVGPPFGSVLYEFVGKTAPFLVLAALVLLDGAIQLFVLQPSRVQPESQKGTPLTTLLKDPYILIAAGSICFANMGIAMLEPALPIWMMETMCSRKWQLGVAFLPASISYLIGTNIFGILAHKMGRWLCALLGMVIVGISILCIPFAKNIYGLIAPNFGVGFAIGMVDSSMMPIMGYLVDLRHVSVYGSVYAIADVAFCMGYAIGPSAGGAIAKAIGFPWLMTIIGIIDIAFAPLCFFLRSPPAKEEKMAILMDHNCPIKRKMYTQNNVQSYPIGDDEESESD

Compound: COc1cc2c(cc1OC)[C@H]1CN(C)[C@H](CC(C)(C)C)CN1CC2 [NBI-750142]
fraction unbound [1]: 0.5 | Cavg, total [2, 14]: 27.7 ng/mL | Cmax, total [2, 14]: 48.1 ng/mL | Ctrough, total [2, 14]: 7.6 ng/mL | Cavg, free ([2]; total x fu_p): 13.9 ng/mL | Cmax, free ([2]; total x fu_p): 24.1 ng/mL | Ctrough, free ([2]; total x fu_p): 3.8 ng/mL | EC50:Ki Ratio (VMAT2 [3]; Human, free PET EC50 over in vitro Ki): 1.4 | EC50 (VMAT2 [3]; T1 and T2, occipital cortex reference, read-out: EC50, Emax model (converted)): 105 nM | URF (upregulation factor) (VMAT2 [3]; T1 and T2, white matter reference): 1.9 | EC50 (VMAT2 [3]; T1 and T2, white matter reference (post hoc), read-out: EC50, Emax model (converted)): 93.2 nM | EC50 (VMAT2 [3]; T1 and T2, white matter reference (post hoc), read-out: EC50, upregulation model (converted)): 33.1 nM | EC50 (VMAT2 [3]; T1 and T2 data, occipital cortex reference, read-out: EC50, upregulation model (converted)): 18.9 nM | URF (upregulation factor) (VMAT2 [3]; T1 and T2 data, occipital cortex reference): 2.8 | EC50 (VMAT2 [3]; T1 scans (~[…] post oral dose), Emax model, occipital cortex reference, read-out: total EC50 (average total plasma concentration vs %TO) (converted)): 75.8 nM | EC50 (VMAT2 [3]; T1 scans, Emax model, WM-derived BPND (post hoc), read-out: total EC50, white matter reference (converted)): 74.6 nM | EC50 (VMAT2 [3]; T1 scans, Emax model, total concentration multiplied by fu_p, read-out: free EC50 (free plasma concentration vs %TO) (converted)): 37.9 nM | VMAT2 occupancy at T2 (VMAT2 [3]; T2 scans ~18 h post NBI-750142, occipital cortex reference): negative occupancy | average striatal occupancy at T2 (VMAT2 [3]; T2 time points (~18 h post dose), WM-derived values): 0.09% | fraction unbound [4]: 0.59 | Ki (VMAT2 [5]): 27.7 nM | VMAT2 %TO estimations (VMAT2 [6]; 60 mg NBI-750142 BID (acceptable doses), Ctrough to Cmax): 36–78% | VMAT2 %TO at Cavg (VMAT2 [6]; [15]): 67% | VMAT2 %TO at Cmax (VMAT2 [6]; [15]): 78% | VMAT2 %TO at Ctrough (VMAT2 [6]; [15]): 36% | EC50:Ki Ratio (VMAT2 [7]; NHP, free PET EC50 over in vitro Ki): 1.1 | EC50 (VMAT2 [7]; total compound Cave during 120-min scan, read-out: EC50 (average total plasma concentration vs %TO) (converted)): 33.1 nM | EC50 (VMAT2 [7]; total concentration multiplied by fu_p, read-out: free EC50 (free plasma concentration vs %TO) (converted)): 20.2 nM | Ki (VMAT2 [8]): 18.3 nM

VMAT2 %TO at Cavg (VMAT2 [6]; [16]): ~ 80% | VMAT2 %TO at Cmax (VMAT2 [6]; [16]): 82% | VMAT2 %TO at Ctrough (VMAT2 [6]; [16]): 73% | VMAT2 %TO at Cavg (VMAT2 [6]; 40 mg VBZ QD, from free NBI-98782 and NHP PET EC50, listed as VBZ): 79% | VMAT2 %TO at Cavg (VMAT2 [6]; [17]): 89% | VMAT2 %TO at Cmax (VMAT2 [6]; [17]): 91% | VMAT2 %TO at Ctrough (VMAT2 [6]; [17]): above 85% | VMAT2 %TO at Ctrough (VMAT2 [6]; 80 mg VBZ QD, from free NBI-98782 and NHP PET EC50, listed as VBZ): 85% | VMAT2 %TO estimations at steady state (VMAT2 [6]; 80 mg valbenazine daily, Ctrough to Cmax): ~ 90% | VMAT2 occupancy achieved by once daily valbenazine treatment (VMAT2 [6]; 40 and 80 mg once daily): 80–90%
Compound: COc1cc2c(cc1OC)[C@H]1C[C@@H](OC(=O)[C@@H](N)C(C)C)[C@H](CC(C)C)CN1CC2 [valbenazine]
Cohen's d, AIMS score reduction (TD patients; valbenazine 40 mg once daily oral): 0.5 | patients with robust AIMS response (>50% reduction from baseline) (TD patients; valbenazine 40 mg): 24% | Cohen's d, AIMS score reduction (TD patients; valbenazine 80 mg once daily oral): 0.9 | patients with robust AIMS response (>50% reduction from baseline) (TD patients; valbenazine 80 mg): 40% | potency at VMAT2 relative to NBI-98782 (fold less potent) (VMAT2 [9]; parent compound vs active metabolite): ~ 40 fold | Cohen's d, chorea [10]: 0.9

Compound: COc1cc2c(cc1OC)C1CC(O)C(CC(C)C)CN1CC2 (stereo not drawn) [NBI-98782, (+)-α-dHTBZ (dihydrotetrabenazine)]
NBI-98782 PK-%TO relationship, valbenazine-dosed vs NBI-98782-dosed rats (VMAT2 [11]): nearly identical | fraction unbound [4]: 0.4 | inhibition of other targets (other targets): minimal to non-detectable inhibition | potency at VMAT2 (VMAT2 [9]): nanomolar potency | ED50 (dose vs VMAT2 occupancy) (VMAT2 [12]): 0.055 mg/kg

Compound: COc1cc2c(cc1OCCC[18F])CCN1C[C@@H](CC(C)C)[C@H](O)C[C@H]21 [[^18F]AV-133]
test-retest variability of baseline BPND (VMAT2 [13]): < 10%
